According to patent US8822447B2, “Indazole compounds useful as ketohexokinase inhibitors” (Janssen Pharmaceutica NV, priority 2010, dated 2014):
Structures can show the parent of a compound that is named as a salt.

target: KHK (Homo sapiens (Human), UniProt P50053); assay: In Vitro KHK Enzyme Assay (HTMS); type: biochemical; conditions: 200 μM fructose, 100 μM ATP, 2 nM KHK, 60 min at 25° C.; Fructose-1-P detected by high throughput mass spectrometry;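 note: primary screen measuring inhibition of KHK-catalysed conversion of D-fructose into fructose 1-phosphate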
Sequence (P50053 whole entry): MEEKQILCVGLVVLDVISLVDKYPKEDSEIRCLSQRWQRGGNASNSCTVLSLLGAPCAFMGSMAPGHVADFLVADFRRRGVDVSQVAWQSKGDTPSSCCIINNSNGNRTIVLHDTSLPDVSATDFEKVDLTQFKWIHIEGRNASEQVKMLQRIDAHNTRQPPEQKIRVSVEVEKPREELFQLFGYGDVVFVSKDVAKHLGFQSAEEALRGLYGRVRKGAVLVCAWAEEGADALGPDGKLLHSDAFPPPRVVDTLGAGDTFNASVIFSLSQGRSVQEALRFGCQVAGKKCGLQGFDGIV
Description: An enzymatic assay was developed to measure KHK-mediated conversion of D-fructose to Fructose-1-P (F-1-P) using High Throughput Mass Spectroscopy (HTMS) as a means of product detection. This assay served as a primary screen to evaluate the ability to inhibit KHK enzyme activity and it has been adapted to high throughput mass spectrometry (HTMS, BioTrove RapidFire™) format for higher throughput.
The compounds to be tested were dosed in 12-points concentration from 511 μM to 0.5 μM. […] The assay was carried out in 384-well plate format.

Q: How did the IC50 turn out when `CSc1nn(-c2ccccc2)c2cc(N3CCNCC3)ccc12` [Compound 1, 3-(Methylsulfanyl)-1-phenyl-6-piperazin-1-yl-1H-indazole HCl salt] was run?
A: 560 nM

Q: How did the IC50 turn out when `CSc1nn(-c2ccccc2)c2cc(NC(=O)C3CNC3)ccc12` [Compound 2, N-(3-(Methylthio)-1-phenyl-1H-indazol-6-yl)azetidine-3-carboxamide hydrochloride] was run?
A: 220 nM

Q: Which IC50 does the source give for `CSc1nn(-c2ccccc2)c2cc(NC(=O)CC3CCCCN3)ccc12` (stereo not shown) [Compound 3, N-(3-(Methylthio)-1-phenyl-1H-indazol-6-yl)-2-(piperidin-2-yl)acetamide hydrochloride] here?
A: 860 nM

Q: How did the IC50 turn out when `CSc1nn(-c2ccccc2)c2cc(NC(=O)NC3CCNC3)ccc12` (stereo not shown) [Compound 4, 1-(3-(Methylthio)-1-phenyl-1H-indazol-6-yl)-3-(pyrrolidin-3-yl)urea hydrochloride] was run?
A: 450 nM

Q: For `CSc1nn(-c2ccccc2)c2cc(NC(=O)C3CCNC3)ccc12` (stereo not shown) [Compound 5, N-(3-(Methylthio)-1-phenyl-1H-indazol-6-yl)pyrrolidine-3-carboxamide hydrochloride], which IC50 is on record?
A: 590 nM

Q: Which IC50 does the source give for `CSc1nn(-c2ccccc2)c2cc(NC(=O)NC3CCNCC3)ccc12` [Compound 7, 1-(3-(Methylthio)-1-phenyl-1H-indazol-6-yl)-3-(piperidin-4-yl)urea hydrochloride] here?
A: 700 nM

Q: For `CSc1nn(-c2ccccc2)c2cc(NC(=O)c3ccncc3)ccc12` [Compound 8, N-(3-Methylsulfanyl-1-phenyl-1H-indazol-6-yl)-isonicotinamide], which IC50 is on record?
A: 1010 nM

Q: With `CSc1nn(-c2ccccc2)c2cc(NC(=O)Cc3ccncc3)ccc12` [Compound 9, N-(3-(Methylthio)-1-phenyl-1H-indazol-6-yl)-2-(pyridin-4-yl)acetamide] as the compound, how does the IC50 read?
A: 2680 nM

Q: With `CSc1nn(-c2ccccc2)c2cc(N3CC4CC3CN4)ccc12` (stereo not shown) [Compound 10, 2-(3-(methylthio)-1-phenyl-1H-indazol-6-yl)-2,5-diaza-bicyclo[2.2.1]heptane hydrochloride] as the compound, how does the IC50 read?
A: 710 nM

Q: How did the IC50 turn out when `CSc1nn(-c2ccccc2)c2cc(N3CCCNCC3)ccc12` [Compound 11, 6-(1,4-Diazepan-1-yl)-3-(methylthio)-1-phenyl-1H-indazole hydrochloride] was run?
A: 540 nM

Q: `CSc1nn(-c2ccccc2)c2cc(NC(=O)C3CCCNC3)ccc12` (stereo not shown) [Compound 12, N-(3-(Methylthio)-1-phenyl-1H-indazol-6-yl)piperidine-3-carboxamide hydrochloride] was tested. Which IC50 did it give?
A: 310 nM

Q: With `CSc1nn(-c2ccccc2)c2cc(NC(=O)C3CCCN3)ccc12` (stereo not shown) [Compound 13, N-(3-(Methylthio)-1-phenyl-1H-indazol-6-yl)pyrrolidine-2-carboxamide hydrochloride] as the compound, how does the IC50 read?
A: 260 nM

Q: How did the IC50 turn out when `CSc1nn(-c2ccccc2)c2cc(NC(=O)c3cccnc3)ccc12` [Compound 14, N-(3-(Methylthio)-1-phenyl-1H-indazol-6-yl)nicotinamide] was run?
A: 230 nM

Q: For `CSc1nn(-c2ccccc2)c2cc(N3CC(N4CCNCC4)C3)ccc12` [Compound 15, 3-(Methylthio)-1-phenyl-6-(3-(piperazin-1-yl)azetidin-1-yl)-1H-indazole hydrochloride], which IC50 is on record?
A: 560 nM

Q: Which IC50 does the source give for `CSc1nn(-c2ccccc2)c2cc(N3CCN(C(=O)C4CCCNC4)CC3)ccc12` (stereo not shown) [Compound 16, 4-(3-Methylsulfanyl-1-phenyl-1H-indazol-6-yl)-piperazin-1-yl]-piperidin-3-yl-methanone hydrochloride] here?
A: 2890 nM

Q: Which IC50 does the source give for `CSc1nn(-c2ccccc2)c2cc(N3CCN(C(=O)c4ccncc4)CC3)ccc12` [Compound 17, (4-(3-(Methylthio)-1-phenyl-1H-indazol-6-yl)piperazin-1-yl)(pyridin-4-yl)methanone] here?
A: 2030 nM

Q: Which IC50 does the source give for `CSc1nn(-c2ccccc2)c2cc(N3CCN(Cc4ccncc4)CC3)ccc12` [Compound 18, 3-Methylsulfanyl-1-phenyl-6-(4-pyridin-4-ylmethyl-piperazin-1-yl)-1H-indazole Hydrochloride] here?
A: 2030 nM

Q: `CSc1nn(-c2ccccc2)c2cc(N3CCC(N4CCNCC4)C3)ccc12` (stereo not shown) [Compound 19, 3-(Methylthio)-1-phenyl-6-(3-(piperazin-1-yl)pyrrolidin-1-yl)-1H-indazole hydrochloride] was tested. Which IC50 did it give?
A: 560 nM

Q: `CSc1nn(-c2ccccc2)c2cc(N3CCC(N4CCNCC4)CC3)ccc12` [Compound 20, 3-(Methylthio)-1-phenyl-6-(4-(piperazin-1-yl)piperidin-1-yl)-1H-indazole hydrochloride] was tested. Which IC50 did it give?
A: 670 nM

Q: With `CSc1nn(-c2ccccc2)c2cc(N3CCN(C4CNC4)CC3)ccc12` [Compound 21, 6-(4-(Azetidin-3-yl)piperazin-1-yl)-3-(methylthio)-1-phenyl-1H-indazole hydrochloride] as the compound, how does the IC50 read?
A: 2820 nM

Q: For `CSc1nn(-c2ccccc2)c2cc(N3CCN(C4CCNC4)CC3)ccc12` (stereo not shown) [Compound 22, 3-(Methylthio)-1-phenyl-6-(4-(pyrrolidin-3-yl)piperazin-1-yl)-1H-indazole hydrochloride], which IC50 is on record?
A: 4450 nM

Q: For `CSc1nn(-c2ccccc2)c2cc(N3CCN(C4CCNCC4)CC3)ccc12` [Compound 23, 3-(Methylthio)-1-phenyl-6-(4-(piperidin-4-yl)piperazin-1-yl)-1H-indazole hydrochloride], which IC50 is on record?
A: 680 nM

Q: How did the IC50 turn out when `CSc1nn(-c2ccccc2)c2cc(N3CCN(c4ccccn4)CC3)ccc12` [Compound 24, 3-(Methylthio)-1-phenyl-6-(4-(pyridin-2-yl)piperazin-1-yl)-1H-indazole] was run?
A: 1560 nM

Q: With `CSc1nn(-c2ccccc2)c2cc(N3CCN(C4CCNC4)C3=O)ccc12` (stereo not shown) [Compound 25, 1-(3-(Methylthio)-1-phenyl-1H-indazol-6-yl)-3-(pyrrolidin-3-yl)imidazolidin-2-one hydrochloride] as the compound, how does the IC50 read?
A: 460 nM

Q: `CSc1nn(-c2ccccc2)c2cc(N3CCN(C4CCNCC4)C3=O)ccc12` [Compound 26, 1-(3-(Methylthio)-1-phenyl-1H-indazol-6-yl)-3-(piperidin-4-yl)imidazolidin-2-one hydrochloride] was tested. Which IC50 did it give?
A: 1470 nM

Q: With `CSc1nn(-c2ccccc2)c2cc(N3CCN(CC4CCNC4)C3=O)ccc12` (stereo not shown) [Compound 27, 1-(3-(Methylthio)-1-phenyl-1H-indazol-6-yl)-3-(pyrrolidin-3-ylmethyl)imidazolidin-2-one hydrochloride] as the compound, how does the IC50 read?
A: 5170 nM

Q: For `CSc1nn(-c2ccccc2)c2cc(N3CCN(CC4CCCNC4)C3=O)ccc12` (stereo not shown) [Compound 28, 1-(3-(Methylthio)-1-phenyl-1H-indazol-6-yl)-3-(piperidin-3-ylmethyl)imidazolidin-2-one hydrochloride], which IC50 is on record?
A: 3040 nM

Q: For `CSc1nn(-c2ccccc2)c2cc(N3CCN(c4ccncc4)CC3)ccc12` [Compound 29, 3-(Methylthio)-1-phenyl-6-(4-(pyridin-4-yl)piperazin-1-yl)-1H-indazole], which IC50 is on record?
A: 300 nM

Q: For `CSc1nn(-c2ccccc2)c2cc(N3CCN(C(=O)c4ccccn4)CC3)ccc12` [Compound 30], which IC50 is on record?
A: 16400 nM

Q: How did the IC50 turn out when `CSc1nn(-c2ccccc2)c2cc(N3CCN(C(=O)c4cccnc4)CC3)ccc12` [Compound 31, (4-(3-(Methylthio)-1-phenyl-1H-indazol-6-yl)piperazin-1-yl)(pyridin-3-yl)methanone] was run?
A: 4950 nM

Q: For `CSc1nn(-c2ccccc2)c2cc(N3CCN(Cc4cccnc4)CC3)ccc12` [Compound 32, 3-(Methylthio)-1-phenyl-6-(4-(pyridin-3-ylmethyl)piperazin-1-yl)-1H-indazole hydrochloride], which IC50 is on record?
A: 6060 nM

Q: With `CSc1nn(-c2ccccc2)c2cc(N3CCN(C(=O)C4CCCN4)CC3)ccc12` (stereo not shown) [Compound 33, (4-(3-(Methylthio)-1-phenyl-1H-indazol-6-yl)piperazin-1-yl)(pyrrolidin-2-yl)methanone hydrochloride] as the compound, how does the IC50 read?
A: 5340 nM

Q: `CSc1nn(-c2ccccc2)c2cc(N3CCN(C(=O)C4CCNCC4)CC3)ccc12` [Compound 34, (4-(3-(Methylthio)-1-phenyl-1H-indazol-6-yl)piperazin-1-yl)(piperidin-4-yl)methanone hydrochloride] was tested. Which IC50 did it give?
A: 830 nM

Q: Which IC50 does the source give for `CSc1nn(-c2ccccc2)c2cc(N3CCN(C(=O)C4CCCCN4)CC3)ccc12` (stereo not shown) [Compound 35, (4-(3-(Methylthio)-1-phenyl-1H-indazol-6-yl)piperazin-1-yl)(piperidin-2-yl)methanone] here?
A: 430 nM

Q: `CCc1nn(-c2ccccc2)c2cc(N3CCC(N4CCNCC4)CC3)ccc12` [Compound 36, 3-Ethyl-1-phenyl-6-(4-piperazin-1-yl-piperidin-1-yl)-1H-indazole hydrochloride] was tested. Which IC50 did it give?
A: 890 nM

Q: Which IC50 does the source give for `CCc1nn(-c2ccccc2)c2cc(-c3ccc(OC4CCNCC4)cc3)ccc12` [Compound 37, 3-Ethyl-1-phenyl-6-(4-(piperidin-4-yloxy)phenyl)-1H-indazole hydrochloride] here?
A: 5870 nM

Q: `CCc1nn(-c2ccccc2)c2cc(NC(=O)c3ccc4[nH]cnc4c3)ccc12` [Compound 38, N-(3-Ethyl-1-phenyl-1H-indazol-6-yl)-1H-benzo[d]imidazole-5-carboxamide] was tested. Which IC50 did it give?
A: 940 nM

Q: How did the IC50 turn out when `CCc1nn(-c2ccccc2)c2cc(NC(=O)c3cccc(C(=N)N)c3)ccc12` [Compound 40, 3-Carbamimidoyl-N-(3-ethyl-1-phenyl-1H-indazol-6-yl)benzamide acetate] was run?
A: 680 nM

Q: `CCc1nn(-c2ccccc2)c2cc(OC3CN(C4CCNCC4)C3)ccc12` [Compound 41, 3-Ethyl-1-phenyl-6-(1-(piperidin-4-yl)azetidin-3-yloxy)-1H-indazole hydrochloride] was tested. Which IC50 did it give?
A: > 30000 nM

Q: With `CCc1nn(-c2ccccc2)c2cc(N3CCNCC3)ccc12` [Compound 42, 3-Ethyl-1-phenyl-6-(piperazin-1-yl)-1H-indazole] as the compound, how does the IC50 read?
A: 570 nM

Q: Which IC50 does the source give for `CCc1nn(-c2ccccc2)c2cc(N3CCC(N4CCNCC4)C3)ccc12` (stereo not shown) [Compound 43, 3-Ethyl-1-phenyl-6-(3-(piperazin-1-yl)pyrrolidin-1-yl)-1H-indazole hydrochloride] here?
A: 2350 nM

Q: `CCc1nn(-c2ccccc2)c2cc(N3CCN(C4CNC4)CC3)ccc12` [Compound 44, 6-(4-(azetidin-3-yl)piperazin-1-yl)-3-ethyl-1-phenyl-1H-indazole hydrochloride] was tested. Which IC50 did it give?
A: 2400 nM

Q: With `CCc1nn(-c2ccccc2)c2cc(N3CCN(C4CCNC4)CC3)ccc12` (stereo not shown) [Compound 45, 3-Ethyl-1-phenyl-6-(4-(pyrrolidin-3-yl)piperazin-1-yl)-1H-indazole hydrochloride] as the compound, how does the IC50 read?
A: 2060 nM
